{
  "source": "patent US20100179225A1",
  "about": "“POI Prevention” (CYTOKINE PHARMASCIENCES, INC., priority 2008, published 2010)",
  "format_in_all_cases": "in vivo",
  "key": {"swine [1]": {"system": "swine", "assay": "Intestinal anastomotic healing in swine (bursting pressure, hydroxyproline content)", "conditions": "1 mg/kg p.o. 14 hours and 3 hours, or once 2 hours (iv group), before operation, postoperative day 6", "description": "Swine were fed with 1 mg/kg CPSI-2364 or placebo (2.5% mannitol) 14 hours and 3 hours before operation. In the iv group, 1 mg/kg CPSI 2364 was fed once 2 hours before operation. After premedication animals were intubated and a central venous catheter was applied. A laparotomy was performed under sterile conditions."}, "Lewis rats": {"system": "Lewis rats", "assay": "Intestinal injury (Park score) after syngeneic orthotopic small intestinal transplantation", "conditions": "1 mg/kg i.v. to donor and recipient", "description": "Syngeneic orthotopic small intestinal transplantation was performed in Lewis rats as previously described (Schwarz N T, Nakao A, Nalesnik M A, Kalff J C, Murase N, Bauer A J. Protective effects of ex vivo graft radiation and tacrolimus on syngeneic transplanted rat small bowel motility. Surgery 2002; 131: 413-423). […] Then the graft vascular bed was perfused with chilled UW solution (University of Wisconcin) and the intestinal lumen was irrigated with 50 ml cold 0.9% NaCl solution containing […]. neomycin sulfate (Uro Nebacetin N, Nycomed, Germany). The graft was stored in cold UW solution during the preparation of the recipient. An end-to-side anastomosis between the graft aorta and the recipient infra-renal aorta, and between the graft vein and recipient vena cava, was performed. Approximately 80% of the recipient intestine was removed and enteric continuity was restored by proximal and distal end-to-end intestinal anastomoses. […]\nHistological changes and intestinal injury were graded by determination of the Park score 3 and 18 hours after reperfusion. […] Probes were analyzed in a blinded way.\nSyngeneic orthotopic small intestinal transplantation was performed as described above and histological changes and intestinal injury were graded by determination of the Park score 3 and 18 hours after reperfusion. […] Probes were analyzed in a blinded way."}, "swine [2]": {"system": "swine", "assay": "Gastrointestinal transit in swine (radio-opaque globes, geometric center) after IM", "conditions": "24 h after operation, mean+/−SEM", "description": "Swine were fed with CPSI 2364 or placebo 14 hours and three hours before operation. In the iv group, CPSI 2364 was applied once two hours before operation. All animals were fed (non fasted). After premedication animals were intubated and a central venous catheter was applied. A laparotomy was performed under sterile conditions. The whole small bowel was eventrated and manipulated twice from duodenum to cecum between two fingers. In the sham group, a laparotomy was performed without intestinal manipulation. At the end of the operation, 15 radio-opaque globes were placed in the proximal small bowel. The abdominal wall was closed and swine were brought to an intensive care unit.\nSwine underwent intestinal manipulation (IM) or laparotomy without IM (Sham). CPSI-2364 (1 mg/kg) or placebo (mannitol 2.5%) were administered orally (p.o.) twice at 14 hours and 3 hours before operation or intravenously (i.v.) once at 2 hours before operation. At the end of the operation, 15 radio-opaque globes were placed in the proximal small bowel. Twenty-four hours after operation animals were sacrificed and the radio-opaque globes were detected by x-rays radiography and the distribution along the gastrointestinal tract was calculated as the geometric center **p<0.001 vs. indicated probes by 1-way ANOVA followed by Bonferroni's post test. […]"}},
  "data": [
    {"compound": "C/C(=N\\N=C(N)N)c1cc(NC(=O)CCCCCCCCC(=O)Nc2cc(/C(C)=N/N=C(N)N)cc(/C(C)=N/N=C(N)N)c2)cc(/C(C)=N/N=C(N)N)c1.CS(=O)(=O)O.CS(=O)(=O)O.CS(=O)(=O)O.CS(=O)(=O)O", "note": "[CPSI-2364]", "values": [
      {"measurement": "anastomotic bursting pressure levels vs placebo", "setting": "swine [1]", "result": "No differences were observed"},
      {"measurement": "anastomotic hydroxyproline content vs placebo", "setting": "swine [1]", "result": "No differences were observed"},
      {"measurement": "Park's score", "setting": "Lewis rats; 3 hours after reperfusion", "result": 1.83},
      {"measurement": "Park's score", "setting": "Lewis rats; 18 hours after reperfusion", "result": 1.5},
      {"measurement": "gastrointestinal transit, geometric center (GC)", "setting": "swine [2]; 1 mg/kg i.v. once at 2 hours before operation", "result": "14.01+/−0.44"},
      {"measurement": "gastrointestinal transit, geometric center (GC)", "setting": "swine [2]; 1 mg/kg p.o. twice at 14 hours and 3 hours before operation", "result": "13.00+/−0.27"}
    ]}
  ]
}
